Columns and labels:
[1] = system: acetylated tubulin in B16F10 cells; experiment: western blot for accumulation of acetylated tubulin in B16F10 cells; format: cell-based
[2] = biological target: HDAC1 (Homo sapiens, UniProt Q13547); experiment: cell-free HDAC isoform inhibition assay, HDAC1
[3] = system: A375; experiment: antiproliferation study, A375 melanoma cell line; conditions: SAHA as control HDACi
[4] = system: B16F10; experiment: antiproliferation study, B16F10 melanoma cell line
[5] = system: B16F10; experiment: verapamil; conditions: B16F10, verapamil at 100 µM, data not shown
[6] = phase II clinical trial; ref 3a; cited from earlier work
[7] = increasing drug concentrations (5–50 µM)

Sequence of HDAC1 (Q13547 whole entry, species assumed, canonical isoform): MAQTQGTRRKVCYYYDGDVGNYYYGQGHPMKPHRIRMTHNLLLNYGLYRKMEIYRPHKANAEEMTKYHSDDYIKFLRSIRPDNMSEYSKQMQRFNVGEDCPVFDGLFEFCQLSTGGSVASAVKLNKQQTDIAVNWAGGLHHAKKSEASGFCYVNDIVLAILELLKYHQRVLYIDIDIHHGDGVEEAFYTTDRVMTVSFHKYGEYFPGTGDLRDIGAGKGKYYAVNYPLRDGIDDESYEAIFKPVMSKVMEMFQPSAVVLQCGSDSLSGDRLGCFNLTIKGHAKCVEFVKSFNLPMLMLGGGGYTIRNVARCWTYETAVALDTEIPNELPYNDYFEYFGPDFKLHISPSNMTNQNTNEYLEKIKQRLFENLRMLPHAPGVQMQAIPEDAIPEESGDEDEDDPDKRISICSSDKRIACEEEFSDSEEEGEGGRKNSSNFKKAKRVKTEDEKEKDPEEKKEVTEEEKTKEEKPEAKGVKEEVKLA

COc1ccc2cc(-c3cn(CCCCCC(=O)NO)nn3)ccc2c1 [7u, reference compound]
accumulation of acetylated tubulin ([1]; 20 µM): significant accumulation of acetylated tubulin

CCN(CC)CCNC(=O)c1ccc(-c2cn(CCCCCCC(=O)NO)nn2)cc1 [10a]
accumulation of acetylated tubulin [1, 7]: gave a similar effect | selectivity for HDAC1 compared to HDAC6 [2]: about four-fold | fold less active relative to SAHA against A375 [3]: ~6 fold | fold less active relative to SAHA against B16F10 ([4]; SAHA as control HDACi): about 3 fold | effect of verapamil co-treatment on cytotoxic effect [5]: did not improve the cytotoxic effect

CCN(CC)CCNC(=O)c1ccc(-c2cn(CCCCCC(=O)NO)nn2)cn1 [11a]
selectivity for HDAC1 compared to HDAC6 [2]: almost indistinguishable

CCN(CC)CCNC(=O)c1ccc(-c2cn(CCCCCCC(=O)NO)nn2)cn1 [11b]
effect of verapamil co-treatment on cytotoxic effect [5]: did not improve the cytotoxic effect

CCN(CC)CCNC(=O)c1ccc(I)cc1 [N-(2-(diethylamino)ethyl)-4-iodobenzamide]
toxicity to the patients [6]: little toxicity

O=C(CCCCCCC(=O)Nc1ccccc1)NO [SAHA, reference compound]
accumulation of acetylated tubulin ([1]; 20 µM): significant accumulation of acetylated tubulin

CCN(CC)CCNC(=O)c1ccc(C(=O)ONC(=O)CCCCCn2cc(-c3ccc4cc(OC)ccc4c3)nn2)cc1 [compound 14]
accumulation of acetylated tubulin [1, 7]: increase in the level of acetylated tubulin in a concentration dependent manner | growth inhibitory effect compared with compound 10a ([4]; B16F10, at 50 µM (Fig. 4)): much more potent than compound 10a | growth inhibitory effect compared with compound 10a ([4]; B16F10, dosed at 25 µM (Fig. 4)): same level of potency as compound 10a
